Experimental data taken from the supplement of paper PMC10307832.

Legend:
Assay in all cases: relative viability (nuclei count vs DMSO), 5 days (fraction); higher = more cells survive
A-427 = tested on: A-427
How it was run: (§1)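 Relative viability was taken as the ratio of nuclei in treated wells to nuclei in vehicle wells. Lung cancer cell lines in 1536-well plates received compounds by pin tool one day after seeding, either one drug alone or a fixed anchor-drug dose plus five library-drug doses (not always all listed) in √10 steps. Nuclei were counted on 4× images after 5 days of treatment, and values are medians of duplicate plates.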

NCI-H650 = tested on: NCI-H650
How it was run: as §1

PC-3 [JPC-3] = tested on: PC-3 [JPC-3]
How it was run: as §1

LCLC-97TM1 = tested on: LCLC-97TM1
How it was run: as §1

NCI-H1993 = tested on: NCI-H1993
How it was run: as §1

NCI-H838 = tested on: NCI-H838
How it was run: as §1

NCI-H1915 = tested on: NCI-H1915
How it was run: as §1

NCI-H520 = tested on: NCI-H520
How it was run: as §1

RERF-LC-KJ = tested on: RERF-LC-KJ
How it was run: as §1

EKVX = tested on: EKVX
How it was run: as §1

NCI-H2347 = tested on: NCI-H2347
How it was run: as §1

`O=C(O)CCCCC(CCSCc1ccccc1)SCc1ccccc1` (stereo not given) [CPI-613] + C[C@@H](Oc1cc(-c2cnn(C3CCNCC3)c2)cnc1N)c1c(Cl)ccc(F)c1Cl [Crizotinib] (partner 1 µM) showed a relative viability (A-427; first compound 5 µM) of 0.89, a relative viability (A-427; first compound 15.81 µM) of 0.885 and a relative viability (A-427; first compound 50 µM) of 0.754. The relative viability (A-427; first compound 158.11 µM) was 0.175, the relative viability (A-427; first compound 500 µM) was 0.126 and the relative viability (NCI-H650; first compound 5 µM) was 0.665. The relative viability (NCI-H650; first compound 15.81 µM) was 0.703, the relative viability (NCI-H650; first compound 50 µM) was 0.677 and the relative viability (NCI-H650; first compound 158.11 µM) was 0.626. The relative viability (NCI-H650; first compound 500 µM) was 0.649, the relative viability (PC-3 [JPC-3]; first compound 5 µM) was 0.977 and the relative viability (PC-3 [JPC-3]; first compound 15.81 µM) was 0.89. For the same molecule, the relative viability (PC-3 [JPC-3]; first compound 50 µM) was 0.889, the relative viability (PC-3 [JPC-3]; first compound 158.11 µM) was 0.648 and the relative viability (PC-3 [JPC-3]; first compound 500 µM) was 0.324. For the same molecule, the relative viability (LCLC-97TM1; first compound 5 µM) was 0.465, the relative viability (LCLC-97TM1; first compound 15.81 µM) was 0.516 and the relative viability (LCLC-97TM1; first compound 50 µM) was 0.379. The relative viability (LCLC-97TM1; first compound 158.11 µM) was 0.11, the relative viability (LCLC-97TM1; first compound 500 µM) was 0.0433 and the relative viability (NCI-H1993; first compound 5 µM) was 0.862. It also gave a relative viability (NCI-H1993; first compound 15.81 µM) of 0.852, a relative viability (NCI-H1993; first compound 50 µM) of 1.01 and a relative viability (NCI-H1993; first compound 158.11 µM) of 0.639. It also gave a relative viability (NCI-H1993; first compound 500 µM) of 0.438, a relative viability (NCI-H838; first compound 5 µM) of 0.882 and a relative viability (NCI-H838; first compound 15.81 µM) of 0.833. For the same molecule, the relative viability (NCI-H838; first compound 50 µM) was 0.803, the relative viability (NCI-H838; first compound 158.11 µM) was 0.598 and the relative viability (NCI-H838; first compound 500 µM) was 0.0806. It also gave a relative viability (NCI-H1915; first compound 5 µM) of 0.895, a relative viability (NCI-H1915; first compound 15.81 µM) of 0.93 and a relative viability (NCI-H1915; first compound 50 µM) of 0.809. The relative viability (NCI-H1915; first compound 158.11 µM) was 0.678, the relative viability (NCI-H1915; first compound 500 µM) was 0.446 and the relative viability (NCI-H520; first compound 5 µM) was 0.721. For the same molecule, the relative viability (NCI-H520; first compound 15.81 µM) was 0.716, the relative viability (NCI-H520; first compound 50 µM) was 0.626 and the relative viability (NCI-H520; first compound 158.11 µM) was 0.233. The relative viability (NCI-H520; first compound 500 µM) was 0.106, the relative viability (RERF-LC-KJ; first compound 5 µM) was 0.841 and the relative viability (RERF-LC-KJ; first compound 15.81 µM) was 0.789. For the same molecule, the relative viability (RERF-LC-KJ; first compound 50 µM) was 0.76, the relative viability (RERF-LC-KJ; first compound 158.11 µM) was 0.876 and the relative viability (RERF-LC-KJ; first compound 500 µM) was 0.268. The relative viability (EKVX; first compound 5 µM) was 0.885, the relative viability (EKVX; first compound 15.81 µM) was 0.817 and the relative viability (EKVX; first compound 50 µM) was 0.891. It also gave a relative viability (EKVX; first compound 158.11 µM) of 1.02, a relative viability (EKVX; first compound 500 µM) of 0.952 and a relative viability (NCI-H2347; first compound 5 µM) of 0.645. The relative viability (NCI-H2347; first compound 15.81 µM) was 0.555, the relative viability (NCI-H2347; first compound 50 µM) was 0.695 and the relative viability (NCI-H2347; first compound 158.11 µM) was 0.669. It also gave a relative viability (NCI-H2347; first compound 500 µM) of 0.55.
